From patent publication US10189835B2, “Derivatives and methods of treating hepatitis B infections” (Novira Therapeutics, Inc., priority 2014, dated 2019) come the findings set out here.

The term EC50 denotes the concentration giving half of the maximal effect.

The test system of one experiment is HBV replication in HepG2.2.15 cells. The experiment in a line: HBV replication inhibition assay (BDNA assay). The format is cell-based. As to conditions: 6 days of treatment, encapsidated HBV DNA in supernatant by branched DNA QuantiGene assay, listed as 828 E1. The text has this: HBV replication inhibition by the compounds of this invention could be determined in cells infected or transfected with HBV, or cells with stably integrated HBV, such as HepG2.2.15 cells (Sells et al. 1987). In this example, HepG2.2.15 cells were maintained in cell culture medium containing 10% fetal bovine serum (FBS), Geneticin, L-glutamine, penicillin and streptomycin. HepG2.2.15 cells could be seeded in 96-well plates at a density of 40,000 cells/well and be treated with serially diluted compounds at a final DMSO concentration of 0.5% either alone or in combination by adding drugs in a checker box format. Cells were incubated with compounds for three days, after which medium was removed and fresh medium containing compounds was added to cells and incubated for another three days. At day 6, supernatant was removed and treated with DNase at 37° C. for 60 minutes, followed by enzyme inactivation at 75° C. for 15 minutes. Encapsidated HBV DNA was released from the virions and covalently linked HBV polymerase by incubating in lysis buffer (Affymetrix QS0010) containing […] proteinase K at 50° C. for 40 minutes. HBV DNA was denatured by addition of 0.2 M NaOH and detected using a branched DNA (BDNA) QuantiGene assay kit according to manufacturer recommendation (Affymetrix). HBV DNA levels could also be quantified using qPCR, based on amplification of encapsidated HBV DNA extraction with QuickExtraction Solution (Epicentre Biotechnologies) and amplification of HBV DNA using HBV specific PCR probes that can hybridize to HBV DNA and a fluorescently labeled probe for quantitation. In addition, cell viability of HepG2.2.15 cells incubated with test compounds alone or in combination was determined by using CellTitre-Glo reagent according to the manufacturer protocol (Promega). The mean background signal from wells containing only culture medium was subtracted from all other samples, and percent inhibition at each compound concentration was calculated by normalizing to signals from HepG2.2.15 cells treated with 0.5% DMSO using equation E1. % inhibition=(DMSOave−Xi)/DMSOave×100% E1: […]
where DMSOave is the mean signal calculated from the wells that were treated with DMSO control (0% inhibition control) and Xi is the signal measured from the individual wells. EC50 values, effective concentrations that achieved 50% inhibitory effect, were determined by non-linear fitting using Graphpad Prism software (San Diego, Calif.) and equation E2 Y=Ymin+(Ymax−Ymin)/(1+10(LogEC50-X)×HillSlope) E2: […]
where Y represents percent inhibition values and X represents the logarithm of compound concentrations.
Selected compounds of the invention were assayed in the HBV replication assay (BDNA assay), as described above and a representative group of these active compounds is shown in Table 3. […] In Table 3, “A” represents 0.01<EC50<0.10; “B” represents 0.10<EC50<0.50; and “C” represents 0.50<EC50<1.0.
For `CON(C)C(=O)c1n[nH]c2c1CN(C(=O)Nc1cccc(Cl)c1)C(C)C2` (stereo not shown) [Compound 828 E1, N5-(3-chlorophenyl)-N3-methoxy-N3,6-dimethyl-1,4,6,7-tetrahydropyrazolo [4,3-c]pyridine-3,5-dicarboxamide], the EC50 lay within 10 to 100 nM.

Staying with this experiment, now noted: 6 days of treatment, encapsidated HBV DNA in supernatant by branched DNA QuantiGene assay, listed as 828 E2.
Consider `CON(C)C(=O)c1n[nH]c2c1CN(C(=O)Nc1cccc(Cl)c1)C(C)C2` (stereo not shown) [Compound 828 E2, N5-(3-chlorophenyl)-N3-methoxy-N3,6-dimethyl-1,4,6,7-tetrahydropyrazolo [4,3-c]pyridine-3,5-dicarboxamide], for which the EC50 lay in the range of 100 to 500 nM.

Staying with this experiment, now noted: Hepatitis B virus, HepG2.2.15, 144 h, 6 days of treatment, encapsidated HBV DNA in supernatant by branched DNA QuantiGene assay.
For the molecule `CON(C)C(=O)c1n[nH]c2c1CN(C(=O)Nc1cccc(Cl)c1)CC2` [Compound 434, N5-(3-chlorophenyl)-N3-methoxy-N3-methyl-1,4,6,7-tetrahydropyrazolo [4,3-c]pyridine-3,5-dicarboxamide], the 50% effective concentration (EC50) was 10 to 100 nM.
Still for that read-out and setting: the value for `CCCC(=O)c1n[nH]c2c1CN(C(=O)Nc1cccc(Cl)c1)CC2` [Compound 561] was 10 to 100 nM.
The same measure, in the same setting: with `CN(O)C(=O)c1n[nH]c2c1CN(C(=O)Nc1cccc(Cl)c1)CC2` [Compound 587, N5-(3-chlorophenyl)-N3-hydroxy-N3-methyl-6,7-dihydro-1H-pyrazolo[4,3-c]pyridine-3,5(4H)-dicarboxamide] the figure was 500 to 1000 nM.
Take `CCN(OC)C(=O)c1n[nH]c2c1CN(C(=O)Nc1cccc(Cl)c1)CC2` [Compound 594, N5-(3-chlorophenyl)-N3-ethyl-N3-methoxy-1,4,6,7-tetrahydropyrazolo [4,3-c]pyridine-3,5-dicarboxamide]: the EC50 was in the range of 10 to 100 nM.
On the same count and under the same terms, with `CON(C(=O)c1n[nH]c2c1CN(C(=O)Nc1cccc(Cl)c1)CC2)C(C)C` [Compound 595, N5-(3-chlorophenyl)-N3-isopropyl-N3-methoxy-1,4,6,7-tetrahydropyrazolo [4,3-c]pyridine-3,5-dicarboxamide] the figure was 100 to 500 nM; with `CCON(C)C(=O)c1n[nH]c2c1CN(C(=O)Nc1cccc(Cl)c1)CC2` [Compound 599], 10 to 100 nM; with `CC(C)ON(C)C(=O)c1n[nH]c2c1CN(C(=O)Nc1cccc(Cl)c1)CC2` [Compound 600, N5-(3-chlorophenyl)-N3-isopropoxy-N3-methyl-1,4,6,7-tetrahydropyrazolo[4,3-c]pyridine-3,5-dicarboxamide], 10 to 100 nM.
For `CCC(=O)c1n[nH]c2c1CN(C(=O)Nc1cccc(Cl)c1)CC2` [Compound 695, N-(3-chlorophenyl)-3-propanoyl-1,4,6,7-tetrahydropyrazolo [4,3-c]pyridine-5-carboxamide], the concentration for a half-maximal effect (EC50) is 100 to 500 nM.
Still for that read-out and setting: with `O=C(Nc1cccc(Cl)c1)N1CCc2[nH]nc(C(=O)N3CC(O)CO3)c2C1` (stereo not shown) [Compound 697, N-(3-chlorophenyl)-3-(4-hydroxyisoxazolidine-2-carbonyl)-1,4,6,7-tetrahydropyrazolo [4,3-c]pyridine-5-carboxamide] the figure was 500 to 1000 nM; with `O=C(Nc1cccc(Cl)c1)N1CCc2[nH]nc(C(=O)N3CC(F)CO3)c2C1` (stereo not shown) [Compound 698, N-(3-chlorophenyl)-3-(4-fluoroisoxazolidine-2-carbonyl)-1,4,6,7-tetrahydropyrazolo[4,3-c]pyridine-5-carboxamide], 10 to 100 nM.
Turning to `O=C(Nc1cccc(Cl)c1)N1CCc2[nH]nc(C(=O)N3CCCO3)c2C1` [Compound 699, N-(3-chlorophenyl)-3-(isoxazolidine-2-carbonyl)-1,4,6,7-tetrahydropyrazolo[4,3-c]pyridine-5-carboxamide], the EC50 fell in the range of 100 to 500 nM.
Still for that read-out and setting: the value for `CCCON(C)C(=O)c1n[nH]c2c1CN(C(=O)Nc1cccc(Cl)c1)CC2` [Compound 795] was 100 to 500 nM; that for `CN(OCCO)C(=O)c1n[nH]c2c1CN(C(=O)Nc1cccc(Cl)c1)CC2` [Compound 796] was 100 to 500 nM; that for `CC(C)CON(C)C(=O)c1n[nH]c2c1CN(C(=O)Nc1cccc(Cl)c1)CC2` [Compound 798] was 100 to 500 nM.
In the case of `COCCON(C)C(=O)c1n[nH]c2c1CN(C(=O)Nc1cccc(Cl)c1)CC2` [Compound 800], the EC50 was in the range of 100 to 500 nM.
As to `CN(OCC1CC1)C(=O)c1n[nH]c2c1CN(C(=O)Nc1cccc(Cl)c1)CC2` [Compound 803], the concentration for a half-maximal effect (EC50) is 100 to 500 nM.
Take `CN(OC1CCC1)C(=O)c1n[nH]c2c1CN(C(=O)Nc1cccc(Cl)c1)CC2` [Compound 805]: the concentration for a half-maximal effect (EC50) lay in the range of 10 to 100 nM.
On the same count and under the same terms, the value for `CN(OC1CCOC1)C(=O)c1n[nH]c2c1CN(C(=O)Nc1cccc(Cl)c1)CC2` (stereo not shown) [Compound 910, N5-(3-chlorophenyl)-N3-methyl-N3-tetrahydrofuran-3-yloxy-1,4,6,7-tetrahydropyrazolo[4,3-c]pyridine-3,5-dicarboxamide] was 100 to 500 nM; that for `CN1CC(ON(C)C(=O)c2n[nH]c3c2CN(C(=O)Nc2cccc(Cl)c2)CC3)C1` [Compound 912, N5-(3-chlorophenyl)-N3-methyl-N3-(1-methylazetidin-3-yl)oxy-1,4,6,7-tetrahydropyrazolo[4,3-c]pyridine-3,5-dicarboxamide] was 100 to 500 nM; that for `CN(C)N(C)C(=O)c1n[nH]c2c1CN(C(=O)Nc1cccc(Cl)c1)CC2` [Compound 937] was 10 to 100 nM.
